Some test systems named below: ACHN renal; HOP-62 NSCLC; TK-10 renal; OVCAR-4 ovarian; U251 CNS; SK-MEL-28 melanoma; HL-60(TB) leukemia; M14 melanoma; SF-295 CNS; RXF 393 renal.
What all share (test): DTP human tumour cell line panel, 48 h

Where “and” joins values, the source holds several entries; their conditions need not be identical. Equal values may be shown once.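 Cultured in 96-well plates, cells were exposed to test compound for 48 hours across five concentrations. GI50 marks 50% less growth. TGI: total growth inhibition.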

As for `Cc1oc2nc[nH]c(=O)c2c1C(=O)/C=C/c1ccc(Cl)cc1`, the GI50 (commonly the concentration giving 50% growth inhibition) is 1.99 µM with ACHN renal; 2.83 µM in the assay on HOP-62 NSCLC; 5.09 µM in the assay on TK-10 renal; 4.43 µM in the assay on OVCAR-4 ovarian; 1.97 µM with U251 CNS; 2.51 µM in the assay with SK-MEL-28 melanoma. In addition, the GI50 is 2.64 µM with HL-60(TB) leukemia, 1.96 µM in the assay with M14 melanoma, 4.5 µM with SF-295 CNS and 1.97 µM with RXF 393 renal. The TGI – broadly, the concentration at which net growth stops – in the assay on ACHN renal was 6.04 µM; in the assay on HOP-62 NSCLC it was 12.6 µM; with TK-10 renal it was 13.6 µM; in the assay with OVCAR-4 ovarian, 16.1 µM; with U251 CNS, 5.01 µM; in the assay on SK-MEL-28 melanoma, 8.77 µM. Moreover, the TGI in the assay with HL-60(TB) leukemia turned out to be 7.78 µM; in the assay with M14 melanoma, 6.72 µM; in the assay with SF-295 CNS, 16 µM; with RXF 393 renal, 4.98 µM.

Regarding `N#CNC(N)=NCCO`, the TGI in the assay with ACHN renal, in the assay on HOP-62 NSCLC, in the assay with TK-10 renal, with OVCAR-4 ovarian, in the assay on U251 CNS and in the assay on SK-MEL-28 melanoma was over 100 µM each time. Further, the TGI was over 100 µM with HL-60(TB) leukemia, over 100 µM with M14 melanoma, over 100 µM in the assay on SF-295 CNS and 68.3 µM in the assay on RXF 393 renal.

Consider `CC(=O)OCCOCNC(=S)N/N=C/c1ccc2ccccc2n1`, for which the TGI with ACHN renal, with HOP-62 NSCLC, in the assay with TK-10 renal, in the assay on OVCAR-4 ovarian, in the assay with U251 CNS and with SK-MEL-28 melanoma was over 100 µM throughout. The TGI in the assay with HL-60(TB) leukemia, in the assay with M14 melanoma, with SF-295 CNS and with RXF 393 renal was over 100 µM throughout.

With `Clc1ccccc1C(n1ncc2ccccc21)n1ncc2ccccc21`, the TGI in the assay with ACHN renal, in the assay on HOP-62 NSCLC, in the assay on TK-10 renal, with OVCAR-4 ovarian, with U251 CNS and in the assay with SK-MEL-28 melanoma was over 100 µM each time. For the same molecule, the TGI was 50.1 µM in the assay on HL-60(TB) leukemia, over 100 µM in the assay on M14 melanoma, over 100 µM in the assay with SF-295 CNS and over 100 µM in the assay on RXF 393 renal.

On to `CC(=O)Nc1ccc(-c2c3nc(c(-c4cc5ccccc5[n+](C)c4)c4ccc([nH]4)c(-c4ccc(NC(C)=O)cc4)c4nc(c(-c5cc6ccccc6[n+](C)c5)c5ccc2[nH]5)C=C4)C=C3)cc1`, for which the GI50 is 10.3 µM in the assay on ACHN renal; 7.3 µM in the assay on HOP-62 NSCLC; 15.2 µM in the assay on TK-10 renal; 3.76 µM with OVCAR-4 ovarian; 13.5 µM in the assay on U251 CNS; 10.5 µM in the assay on SK-MEL-28 melanoma. In addition, the GI50 in the assay with HL-60(TB) leukemia was 10.1 µM; in the assay on M14 melanoma it was 28.6 µM; in the assay on SF-295 CNS, 6.65 µM; in the assay with RXF 393 renal, 2.05 µM. The TGI with ACHN renal is 26.6 µM; in the assay with HOP-62 NSCLC, 19.5 µM; in the assay on TK-10 renal, 44.6 µM; in the assay with OVCAR-4 ovarian, 30.3 µM; with U251 CNS it was over 50 µM; with SK-MEL-28 melanoma it was 29.2 µM. For the same molecule, the TGI in the assay on HL-60(TB) leukemia is 29.2 µM; in the assay on M14 melanoma, over 50 µM; in the assay on SF-295 CNS it was 22.5 µM; in the assay with RXF 393 renal, 14.5 µM.

On to `O=C1c2ccccc2NC(c2cc(Cl)cc(Cl)c2O)N1CCc1ccccn1` (centres undefined), for which the TGI in the assay on ACHN renal was over 100 µM; in the assay on HOP-62 NSCLC, over 100 µM; in the assay on TK-10 renal, over 100 µM; in the assay on OVCAR-4 ovarian, 98.9 µM; in the assay on U251 CNS it was over 100 µM; in the assay with SK-MEL-28 melanoma, over 100 µM. In addition, the TGI with HL-60(TB) leukemia, in the assay with M14 melanoma, in the assay with SF-295 CNS and in the assay on RXF 393 renal was over 100 µM in each case.

As to `NC(C/[N+]([O-])=N/O)C(=O)O` (centres undefined), the GI50 with ACHN renal was 2.98 µM; with HOP-62 NSCLC, 19.4 µM and 9.42 µM and 4.9 µM; with TK-10 renal, > 66.2 µM and > 100 µM and 30.9 µM; in the assay on OVCAR-4 ovarian, 23.6 µM and > 100 µM and 21.2 µM; in the assay on U251 CNS, 0.772 µM and 3.82 µM and 0.713 µM; in the assay with SK-MEL-28 melanoma, > 47.8 µM and > 100 µM and 24.5 µM. The GI50 in the assay on M14 melanoma is 28.9 µM and 37.5 µM and 24.4 µM; in the assay on SF-295 CNS it was 6.24 µM; in the assay on RXF 393 renal it was 93.2 µM and > 100 µM and 29 µM. The TGI with ACHN renal is over 500 µM; in the assay with HOP-62 NSCLC, > 100 µM and 92.7 µM; in the assay with TK-10 renal it was over 459 µM; with OVCAR-4 ovarian it was over 449 µM; in the assay on U251 CNS it was over 500 µM; in the assay with SK-MEL-28 melanoma it was over 500 µM. Moreover, the TGI with HL-60(TB) leukemia is > 100 µM and 176 µM; in the assay on M14 melanoma, over 459 µM; in the assay on SF-295 CNS, over 500 µM; in the assay with RXF 393 renal, > 100 µM and 381 µM.

Take `COc1ccc(CN2C(=O)C(Cc3cc(OC)c(OC)c(C)c3OC)NC(=O)/C2=C/c2cc(OC)c(OC)c(C)c2OC)cc1` (centres undefined): the TGI with ACHN renal was over 100 µM; with HOP-62 NSCLC, over 100 µM; in the assay on TK-10 renal, 83.1 µM; in the assay on OVCAR-4 ovarian it was 82.5 µM; in the assay with U251 CNS, over 100 µM; with SK-MEL-28 melanoma, over 100 µM. Further, the TGI in the assay on HL-60(TB) leukemia was 45.8 µM; in the assay with M14 melanoma, 96.9 µM; in the assay with SF-295 CNS, over 100 µM; with RXF 393 renal, 71.2 µM.

For the molecule `Cc1nc2ccccc2c(=O)n1/N=C(\N=Nc1cc(Cl)ccc1Cl)c1cccc(-c2ccco2)c1`, the TGI with ACHN renal, in the assay on HOP-62 NSCLC, in the assay with TK-10 renal, in the assay on OVCAR-4 ovarian, in the assay with U251 CNS and with SK-MEL-28 melanoma was over 100 µM each time. Besides, the TGI was over 10 µM in the assay on HL-60(TB) leukemia, over 100 µM in the assay with M14 melanoma, over 100 µM in the assay with SF-295 CNS and over 100 µM in the assay with RXF 393 renal.

Consider `Cc1c(C(=O)CC(=O)C(=O)Nc2c(C(C)C)cccc2C(C)C)[n+](=O)c2ccccc2n1[O-]`, for which the TGI stood at 15.3 µM with ACHN renal; 59.3 µM in the assay on HOP-62 NSCLC; 60.2 µM with TK-10 renal; 15.5 µM with OVCAR-4 ovarian; 10.7 µM in the assay on U251 CNS; 48.3 µM with SK-MEL-28 melanoma. Also, the TGI in the assay on HL-60(TB) leukemia was found to be 6.91 µM; in the assay on M14 melanoma it was 10.8 µM; with SF-295 CNS it was 29.1 µM; with RXF 393 renal, 38.9 µM.

`CC(C)(C)[Si](C)(C)OCC1CCC(n2cnc3c(=O)[nH]cnc32)O1` (centres undefined): the TGI in the assay on ACHN renal, with HOP-62 NSCLC, with TK-10 renal, in the assay on OVCAR-4 ovarian, with U251 CNS and in the assay with SK-MEL-28 melanoma was over 100 µM in each case. For the same molecule, the TGI in the assay on HL-60(TB) leukemia, in the assay with M14 melanoma, with SF-295 CNS and in the assay on RXF 393 renal was over 100 µM each time.

For the origin of these results see PubChem BioAssay (NCI).
